Experimental data taken from US20070049564A1 (Wyeth, priority 2005, published 2007).
Values after ≈ are worked out from the molar mass of the structure shown.

What was measured:
Assay in all cases: MIC, broth microdilution
E. coli GC 2270 = details: Escherichia coli, GC2270, E. coli GC 2270
S. aureus GC 6467 = details: Staphylococcus aureus, GC6467, S. aureus GC 6467
E. faecium GC 2243 = details: Enterococcus faecium, GC2243, E. faecium GC 2243
E. coli GC 3226 = details: Escherichia coli, GC3226, E. coli GC 3226
E. coli GC 2271 = details: Escherichia coli, GC2271, E. coli GC 2271
E. coli GC 2272 = details: Escherichia coli, GC2272, E. coli GC 2272
E. faecalis GC 2265 = details: Enterococcus faecalis, GC2265, E. faecalis GC 2265
S. aureus GC 6469 = details: Staphylococcus aureus, GC6469, S. aureus GC 6469
S. aureus GC 1079 = details: Staphylococcus aureus, GC1079, S. aureus GC 1079
Procedure: Antimicrobial susceptibility testing. The in vitro activities of the antibiotics are determined by the broth microdilution method as recommended by the National Committee for Clinical Laboratory Standards (NCCLS) (1). Mueller-Hinton II broth (MHBII)(BBL Cockeysville, Md.) is the medium employed in the testing procedures. Microtiter plates containing serial dilutions of each antimicrobial agent are inoculated with each organism to yield the appropriate density (10^5 CFU/ml) in a 100 μl final volume. The plates are incubated for 18-22 hours at 35° C. in ambient air.
Representative compounds were first incubated in mouse serum for an hour prior to the in vitro testing against a panel of selected gram-positive and gram-negative bacteria strains. All compounds were also pre-incubated in water for an hour prior to testing as control. Representative compounds of Formula I were incubated in human serum prior to MIC determination.

E. coli GC 6465 = details: Escherichia coli, GC6465, E. coli GC 6465
S. aureus GC 1131 = details: Staphylococcus aureus, GC1131, S. aureus GC 1131
E. coli GC 1073 = details: Escherichia coli, GC1073, E. coli GC 1073
S. aureus GC 6335 = details: Staphylococcus aureus, GC6335, S. aureus GC 6335
E. faecalis GC 2267 = details: Enterococcus faecalis, GC2267, E. faecalis GC 2267
P. aeruginosa GC 2214 = details: Pseudomonas aeruginosa, GC2214, P. aeruginosa GC 2214
S. epidermidis GC 4935 = details: Staphylococcus epidermidis, GC4935, S. epidermidis GC 4935
E. coli GC 2203 = details: Escherichia coli, GC2203, E. coli GC 2203
E. coli GC 2233 = details: Escherichia coli, GC2233, E. coli GC 2233
c. albicans GC 3066 = test system: c. albicans GC 3066
E. coli GC 4560 = details: Escherichia coli, GC4560, E. coli GC 4560

CCCN(CC(=O)Nc1cc(N(C)C)c2c(c1O)C(=O)C1=C(O)[C@]3(O)C(=O)C(C(N)=O)=C(O)[C@@H](N(C)C)[C@@H]3C[C@@H]1C2)C(=O)OCC [Example 15, ethyl 2-{[(5aR,6aS,7S,10aS)-9-(aminocarbonyl)-4,7-bis(dimethylamino)-1,8,10a,11-tetrahydroxy-10,12-dioxo-5,5a,6,6a,7,10,10a,12-octahydrotetracen-2-yl]amino}-2-oxoethyl(propyl)carbamate]
MIC (E. coli GC 2270; Mouse Serum pre-incubation): 64 µg/mL (≈ 99.4 µM) | MIC (E. coli GC 2270; Water pre-incubation): 64 µg/mL (≈ 99.4 µM) | MIC (S. aureus GC 6467; Mouse Serum pre-incubation): 16 µg/mL (≈ 24.9 µM) | MIC (S. aureus GC 6467; Water pre-incubation): 16 µg/mL (≈ 24.9 µM) | MIC (E. faecium GC 2243; Mouse Serum pre-incubation): 8 µg/mL (≈ 12.4 µM) | MIC (E. faecium GC 2243; Water pre-incubation): 8 µg/mL (≈ 12.4 µM) | MIC (E. coli GC 3226; Mouse Serum pre-incubation): > 64 µg/mL | MIC (E. coli GC 3226; Water pre-incubation): > 64 µg/mL | MIC (E. coli GC 2271; Mouse Serum pre-incubation): 64 µg/mL (≈ 99.4 µM) | MIC (E. coli GC 2271; Water pre-incubation): 64 µg/mL (≈ 99.4 µM) | MIC (E. coli GC 2272; Mouse Serum pre-incubation): > 64 µg/mL | MIC (E. coli GC 2272; Water pre-incubation): > 64 µg/mL | MIC (E. faecalis GC 2265; Mouse Serum pre-incubation): 8 µg/mL (≈ 12.4 µM) | MIC (E. faecalis GC 2265; Water pre-incubation): 8 µg/mL (≈ 12.4 µM) | MIC (S. aureus GC 6469; Mouse Serum pre-incubation): 4 µg/mL (≈ 6.21 µM) | MIC (S. aureus GC 6469; Water pre-incubation): 8 µg/mL (≈ 12.4 µM) | MIC (S. aureus GC 1079; Mouse Serum pre-incubation): 2 µg/mL (≈ 3.11 µM) | MIC (S. aureus GC 1079; Water pre-incubation): 4 µg/mL (≈ 6.21 µM) | MIC (E. coli GC 6465; Mouse Serum pre-incubation): > 64 µg/mL | MIC (E. coli GC 6465; Water pre-incubation): > 64 µg/mL | MIC (S. aureus GC 1131; Mouse Serum pre-incubation): 2 µg/mL (≈ 3.11 µM) | MIC (S. aureus GC 1131; Water pre-incubation): 4 µg/mL (≈ 6.21 µM) | MIC (E. coli GC 1073; Mouse Serum pre-incubation): > 64 µg/mL | MIC (E. coli GC 1073; Water pre-incubation): > 64 µg/mL | MIC (S. aureus GC 6335; Mouse Serum pre-incubation): 4 µg/mL (≈ 6.21 µM) | MIC (S. aureus GC 6335; Water pre-incubation): 4 µg/mL (≈ 6.21 µM) | MIC (E. faecalis GC 2267; Mouse Serum pre-incubation): 8 µg/mL (≈ 12.4 µM) | MIC (E. faecalis GC 2267; Water pre-incubation): 8 µg/mL (≈ 12.4 µM) | MIC (P. aeruginosa GC 2214; Mouse Serum pre-incubation): > 64 µg/mL | MIC (P. aeruginosa GC 2214; Water pre-incubation): > 64 µg/mL | MIC (S. epidermidis GC 4935; Mouse Serum pre-incubation): 16 µg/mL (≈ 24.9 µM) | MIC (S. epidermidis GC 4935; Water pre-incubation): 16 µg/mL (≈ 24.9 µM) | MIC (E. coli GC 2203; Mouse Serum pre-incubation): 32 µg/mL (≈ 49.7 µM) | MIC (E. coli GC 2203; Water pre-incubation): 64 µg/mL (≈ 99.4 µM) | MIC (E. coli GC 2233; Mouse Serum pre-incubation): > 64 µg/mL | MIC (E. coli GC 2233; Water pre-incubation): > 64 µg/mL | MIC (c. albicans GC 3066; Candida albicans, GC3066): > 64 µg/mL | MIC (c. albicans GC 3066; c. albicans GC 3066, Water pre-incubation): >64 UG/ML | MIC (E. coli GC 4560; Mouse Serum pre-incubation): 1 µg/mL (≈ 1.55 µM) | MIC (E. coli GC 4560; Water pre-incubation): 1 µg/mL (≈ 1.55 µM)
